Measurements published in PubChem BioAssay (NCI).
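In this assay, cells in 96-well plates receive the compound at five concentrations for 48 hours. Endpoints are linearly interpolated between the surrounding concentrations. The concentration for full growth arrest is given as TGI.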 Activity calls are given as the source filed them. Rule as the data show it: active = GI50 below about 0.43 µM; inactive = the rest.

Experiments:
Experiment in all cases: growth of human tumour cells (NCI), 48 h
SF-268 CNS = system: SF-268 CNS
HOP-18 NSCLC = system: HOP-18 NSCLC
RXF-631 renal = system: RXF-631 renal
RXF 393 renal = system: RXF 393 renal
SN12C renal = system: SN12C renal
HOP-62 NSCLC = system: HOP-62 NSCLC
KM12 colon = system: KM12 colon
RPMI-8226 leukemia = system: RPMI-8226 leukemia
DMS 114 small cell lung = system: DMS 114 small cell lung
SK-MEL-28 melanoma = system: SK-MEL-28 melanoma
OVCAR-5 ovarian = system: OVCAR-5 ovarian
CCRF-CEM leukemia = system: CCRF-CEM leukemia
SK-MEL-5 melanoma = system: SK-MEL-5 melanoma
U251 CNS = system: U251 CNS
HCT-116 colon = system: HCT-116 colon
SNB-78 CNS = system: SNB-78 CNS
M14 melanoma = system: M14 melanoma
ACHN renal = system: ACHN renal
NCI-H226 lung = system: NCI-H226 lung
A498 renal = system: A498 renal
OVCAR-4 ovarian = system: OVCAR-4 ovarian
DLD-1 colon = system: DLD-1 colon
LOX IMVI melanoma = system: LOX IMVI melanoma
NCI-H460 lung = system: NCI-H460 lung
LXFL 529 NSCLC = system: LXFL 529 NSCLC
NCI-H23 lung = system: NCI-H23 lung
NCI-H522 lung = system: NCI-H522 lung
TK-10 renal = system: TK-10 renal
MALME-3M melanoma = system: MALME-3M melanoma
HCT-15 colon = system: HCT-15 colon
HT29 colon = system: HT29 colon
CAKI-1 renal = system: CAKI-1 renal
UACC-257 melanoma = system: UACC-257 melanoma
HL-60(TB) leukemia = system: HL-60(TB) leukemia
SK-MEL-2 melanoma = system: SK-MEL-2 melanoma
SF-295 CNS = system: SF-295 CNS
KM20L2 colon = system: KM20L2 colon
SK-OV-3 ovarian = system: SK-OV-3 ovarian
SNB-19 CNS = system: SNB-19 CNS
A549 NSCLC = system: A549 NSCLC
HCC-2998 colon = system: HCC-2998 colon
SNB-75 CNS = system: SNB-75 CNS
SW-620 colon = system: SW-620 colon
HOP-92 NSCLC = system: HOP-92 NSCLC
DMS 273 small cell lung = system: DMS 273 small cell lung
COLO 205 colon = system: COLO 205 colon
SR leukemia = system: SR leukemia
786-0 renal = system: 786-0 renal
MOLT-4 leukemia = system: MOLT-4 leukemia
XF 498 CNS = system: XF 498 CNS
K-562 leukemia = system: K-562 leukemia
IGROV1 ovarian = system: IGROV1 ovarian
OVCAR-8 ovarian = system: OVCAR-8 ovarian
OVCAR-3 ovarian = system: OVCAR-3 ovarian
UACC-62 melanoma = system: UACC-62 melanoma
SF-539 CNS = system: SF-539 CNS
UO-31 renal = system: UO-31 renal
M19-MEL melanoma = system: M19-MEL melanoma

Compound: O=C(NC1C(O)C(O)C(CO)OC1n1cc(F)c(=O)[nH]c1=O)OCc1ccccc1 (centres undefined)
- TGI (SF-268 CNS): > 100 µM
- TGI (HOP-18 NSCLC): > 100 µM
- TGI (RXF-631 renal): > 100 µM
- TGI (RXF 393 renal): > 100 µM
- TGI (SN12C renal): > 100 µM
- TGI (HOP-62 NSCLC): > 100 µM
- TGI (KM12 colon): > 100 µM
- TGI (RPMI-8226 leukemia): > 100 µM
- TGI (DMS 114 small cell lung): > 100 µM
- TGI (SK-MEL-28 melanoma): > 100 µM
- TGI (OVCAR-5 ovarian): > 100 µM
- TGI (CCRF-CEM leukemia): > 100 µM
- TGI (SK-MEL-5 melanoma): > 100 µM
- TGI (U251 CNS): > 100 µM
- TGI (HCT-116 colon): > 100 µM
- TGI (SNB-78 CNS): > 100 µM
- TGI (M14 melanoma): > 100 µM
- TGI (ACHN renal): > 100 µM
- TGI (NCI-H226 lung): > 100 µM
- TGI (A498 renal): > 100 µM
- TGI (OVCAR-4 ovarian): > 100 µM
- TGI (DLD-1 colon): > 100 µM
- TGI (LOX IMVI melanoma): > 100 µM
- TGI (NCI-H460 lung): > 100 µM
- TGI (LXFL 529 NSCLC): > 100 µM
- TGI (NCI-H23 lung): > 100 µM
- TGI (NCI-H522 lung): > 100 µM
- TGI (TK-10 renal): > 100 µM
- TGI (MALME-3M melanoma): > 100 µM
- TGI (HCT-15 colon): > 100 µM
- TGI (HT29 colon): > 100 µM
- TGI (CAKI-1 renal): > 100 µM
- TGI (UACC-257 melanoma): > 100 µM
- TGI (HL-60(TB) leukemia): > 100 µM
- TGI (SK-MEL-2 melanoma): > 100 µM
- TGI (SF-295 CNS): > 100 µM
- TGI (KM20L2 colon): > 100 µM
- TGI (SK-OV-3 ovarian): > 100 µM
- TGI (SNB-19 CNS): > 100 µM
- TGI (A549 NSCLC): > 100 µM
- TGI (HCC-2998 colon): > 100 µM
- TGI (SNB-75 CNS): > 100 µM
- TGI (SW-620 colon): > 100 µM
- TGI (HOP-92 NSCLC): > 100 µM
- TGI (DMS 273 small cell lung): > 100 µM
- TGI (COLO 205 colon): > 100 µM
- TGI (SR leukemia): > 100 µM

Compound: C=CCCCCC1CCC2CCC(CCCC)N12 (centres undefined)
- outcome (SF-268 CNS): inactive
- outcome (786-0 renal): inactive
- outcome (RXF-631 renal): inactive
- outcome (RXF 393 renal): inactive
- outcome (SN12C renal): inactive
- outcome (MOLT-4 leukemia): inactive
- outcome (HOP-62 NSCLC): inactive
- outcome (KM12 colon): inactive
- outcome (RPMI-8226 leukemia): inactive
- outcome (DMS 114 small cell lung): inactive
- outcome (SK-MEL-28 melanoma): inactive
- outcome (OVCAR-5 ovarian): inactive
- outcome (CCRF-CEM leukemia): inactive
- outcome (SK-MEL-5 melanoma): inactive
- outcome (U251 CNS): inactive
- outcome (HCT-116 colon): inactive
- outcome (XF 498 CNS): inactive
- outcome (SNB-78 CNS): inactive
- outcome (K-562 leukemia): inactive
- outcome (M14 melanoma): inactive
- outcome (ACHN renal): inactive
- outcome (NCI-H226 lung): inactive
- outcome (OVCAR-4 ovarian): inactive
- outcome (IGROV1 ovarian): inactive
- outcome (DLD-1 colon): inactive
- outcome (LOX IMVI melanoma): inactive
- outcome (NCI-H460 lung): inactive
- outcome (OVCAR-8 ovarian): inactive
- outcome (LXFL 529 NSCLC): inactive
- outcome (NCI-H23 lung): inactive
- outcome (OVCAR-3 ovarian): inactive
- outcome (NCI-H522 lung): inactive
- outcome (UACC-62 melanoma): inactive
- outcome (TK-10 renal): inactive
- outcome (MALME-3M melanoma): inactive
- outcome (SF-539 CNS): inactive
- outcome (UACC-257 melanoma): inactive
- outcome (HL-60(TB) leukemia): inactive
- outcome (SK-MEL-2 melanoma): inactive
- outcome (UO-31 renal): inactive
- outcome (SF-295 CNS): inactive
- outcome (KM20L2 colon): inactive
- outcome (SK-OV-3 ovarian): inactive
- outcome (M19-MEL melanoma): inactive
- outcome (SNB-19 CNS): inactive
- outcome (A549 NSCLC): inactive
- outcome (HCC-2998 colon): inactive
- outcome (SNB-75 CNS): inactive
- outcome (SW-620 colon): inactive
- outcome (HOP-92 NSCLC): inactive
- outcome (DMS 273 small cell lung): inactive
- outcome (COLO 205 colon): inactive

Compound: O=S(=O)(SCCCCSS(=O)(=O)c1ccc(Cl)cc1)c1ccc(Cl)cc1
- TGI (SF-268 CNS): 29.1 µM
- TGI (HOP-18 NSCLC): 32.9 µM
- TGI (786-0 renal): 21.4 µM
- TGI (RXF-631 renal): 21.5 µM
- TGI (RXF 393 renal): 34.2 µM
- TGI (SN12C renal): 22.5 µM
- TGI (MOLT-4 leukemia): 10.1 µM
- TGI (HOP-62 NSCLC): 36.6 µM
- TGI (KM12 colon): 22.8 µM
- TGI (RPMI-8226 leukemia): 28.5 µM
- TGI (DMS 114 small cell lung): 20.7 µM
- TGI (SK-MEL-28 melanoma): 34.3 µM
- TGI (OVCAR-5 ovarian): 30.4 µM
- TGI (CCRF-CEM leukemia): 4.5 µM
- TGI (SK-MEL-5 melanoma): 30.5 µM
- TGI (U251 CNS): 21 µM
- TGI (HCT-116 colon): 24.3 µM
- TGI (SNB-78 CNS): 56.4 µM
- TGI (K-562 leukemia): 48.8 µM
- TGI (M14 melanoma): 27.7 µM
- TGI (ACHN renal): 31 µM
- TGI (A498 renal): 32.9 µM
- TGI (OVCAR-4 ovarian): 33.5 µM
- TGI (IGROV1 ovarian): 19.4 µM
- TGI (DLD-1 colon): 27.5 µM
- TGI (LOX IMVI melanoma): 11.3 µM
- TGI (NCI-H460 lung): 29.5 µM
- TGI (OVCAR-8 ovarian): 25.5 µM
- TGI (LXFL 529 NSCLC): 24.7 µM
- TGI (NCI-H23 lung): 22.9 µM
- TGI (OVCAR-3 ovarian): 28 µM
- TGI (NCI-H522 lung): 17 µM
- TGI (UACC-62 melanoma): 28.9 µM
- TGI (TK-10 renal): 47.7 µM
- TGI (MALME-3M melanoma): 32.4 µM
- TGI (SF-539 CNS): 25 µM
- TGI (HCT-15 colon): 27.4 µM
- TGI (HT29 colon): 32.1 µM
- TGI (CAKI-1 renal): 27.8 µM
- TGI (UACC-257 melanoma): 37.2 µM
- TGI (HL-60(TB) leukemia): 8.85 µM
- TGI (SK-MEL-2 melanoma): 33.2 µM
- TGI (UO-31 renal): 21.1 µM
- TGI (SF-295 CNS): 15.2 µM
- TGI (KM20L2 colon): 33.8 µM
- TGI (SK-OV-3 ovarian): 30.1 µM
- TGI (M19-MEL melanoma): 30.8 µM
- TGI (SNB-19 CNS): 28 µM
- TGI (A549 NSCLC): 37.2 µM
- TGI (HCC-2998 colon): 34.1 µM
- TGI (SNB-75 CNS): 33.3 µM
- TGI (SW-620 colon): 23 µM
- TGI (HOP-92 NSCLC): 21 µM
- TGI (DMS 273 small cell lung): 23.3 µM
- TGI (COLO 205 colon): 28.2 µM
